Publication PMC4774911, “Biochemical Screening of Five Protein Kinases from Plasmodium falciparum against 14,000 Cell-Active Compounds” (PLoS ONE, 2016)
“And” between values parts separate entries of the source, which are not always exact repeats. Equal entries are not always repeated.

Experiments:
Assay in all cases: biochemical
Design in all cases: endogenous in cells; host or cells: K562 cell extract; species or system K562 (extract); replicate k of n = 2 (each experiment ID is one independent experiment; two experiment IDs per compound)
Details in all cases: read-out: KDapp
[1] = target: CRKRS (Homo sapiens, UniProt Q9NYV4)
[2] = target: CSNK1D (Homo sapiens, UniProt P48730)
[3] = target: CSNK1E (Homo sapiens, UniProt P49674)
[4] = target: T1, ITK (Homo sapiens, UniProt Q08881)
T1 sequence (Q08881 1-620): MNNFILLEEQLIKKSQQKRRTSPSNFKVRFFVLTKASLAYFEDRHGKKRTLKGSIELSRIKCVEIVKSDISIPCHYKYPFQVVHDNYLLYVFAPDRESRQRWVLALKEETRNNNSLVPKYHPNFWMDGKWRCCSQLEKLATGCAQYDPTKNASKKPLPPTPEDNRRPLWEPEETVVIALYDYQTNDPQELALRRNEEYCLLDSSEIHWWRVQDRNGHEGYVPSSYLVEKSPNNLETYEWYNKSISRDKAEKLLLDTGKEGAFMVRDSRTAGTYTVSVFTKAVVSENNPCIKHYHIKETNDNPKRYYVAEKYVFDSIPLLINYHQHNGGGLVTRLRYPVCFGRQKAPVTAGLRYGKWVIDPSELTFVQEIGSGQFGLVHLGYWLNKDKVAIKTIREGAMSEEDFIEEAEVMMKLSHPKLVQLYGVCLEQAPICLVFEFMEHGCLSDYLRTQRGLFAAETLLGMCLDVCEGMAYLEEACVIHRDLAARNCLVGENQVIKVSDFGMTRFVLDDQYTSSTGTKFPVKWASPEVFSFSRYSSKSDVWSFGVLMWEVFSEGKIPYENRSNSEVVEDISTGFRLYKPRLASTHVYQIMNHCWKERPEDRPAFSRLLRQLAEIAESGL

[5] = target: JAK1 (Homo sapiens, UniProt P23458)
[6] = target: LYN (Homo sapiens, UniProt P07948)
[7] = target: MAP2K2 (Homo sapiens, UniProt P36507)
[8] = target: MARK2 (Homo sapiens, UniProt Q7KZI7)
[9] = target: T2, NEK2 (Homo sapiens, UniProt P51955)
T2 sequence (P51955 1-445): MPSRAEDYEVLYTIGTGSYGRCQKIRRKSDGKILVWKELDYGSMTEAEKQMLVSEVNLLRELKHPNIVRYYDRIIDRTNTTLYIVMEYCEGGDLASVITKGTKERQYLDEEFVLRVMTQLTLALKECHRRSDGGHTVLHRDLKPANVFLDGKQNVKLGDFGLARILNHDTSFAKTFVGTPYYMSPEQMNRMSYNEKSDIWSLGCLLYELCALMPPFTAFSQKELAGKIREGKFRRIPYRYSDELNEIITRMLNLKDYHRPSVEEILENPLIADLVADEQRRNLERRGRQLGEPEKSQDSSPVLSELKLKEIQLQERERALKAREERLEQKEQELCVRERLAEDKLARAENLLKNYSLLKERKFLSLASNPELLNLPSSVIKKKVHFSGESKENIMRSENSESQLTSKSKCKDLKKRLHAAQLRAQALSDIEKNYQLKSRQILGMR

[10] = target: T3, PIP4K2B (Homo sapiens, UniProt P78356)
T3 sequence (P78356 1-416): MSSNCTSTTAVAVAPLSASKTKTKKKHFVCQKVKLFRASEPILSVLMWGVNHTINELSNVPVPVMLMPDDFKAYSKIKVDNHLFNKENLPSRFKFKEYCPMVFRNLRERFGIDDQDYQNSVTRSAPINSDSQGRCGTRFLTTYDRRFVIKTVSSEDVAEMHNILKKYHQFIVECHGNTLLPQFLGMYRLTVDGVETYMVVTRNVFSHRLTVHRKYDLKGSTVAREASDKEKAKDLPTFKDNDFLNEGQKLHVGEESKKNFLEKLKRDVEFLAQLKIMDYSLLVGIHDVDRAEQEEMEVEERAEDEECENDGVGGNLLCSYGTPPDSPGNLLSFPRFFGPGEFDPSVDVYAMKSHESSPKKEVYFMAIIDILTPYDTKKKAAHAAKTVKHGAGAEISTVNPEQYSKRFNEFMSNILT

JAK1, sequence (P23458 whole entry): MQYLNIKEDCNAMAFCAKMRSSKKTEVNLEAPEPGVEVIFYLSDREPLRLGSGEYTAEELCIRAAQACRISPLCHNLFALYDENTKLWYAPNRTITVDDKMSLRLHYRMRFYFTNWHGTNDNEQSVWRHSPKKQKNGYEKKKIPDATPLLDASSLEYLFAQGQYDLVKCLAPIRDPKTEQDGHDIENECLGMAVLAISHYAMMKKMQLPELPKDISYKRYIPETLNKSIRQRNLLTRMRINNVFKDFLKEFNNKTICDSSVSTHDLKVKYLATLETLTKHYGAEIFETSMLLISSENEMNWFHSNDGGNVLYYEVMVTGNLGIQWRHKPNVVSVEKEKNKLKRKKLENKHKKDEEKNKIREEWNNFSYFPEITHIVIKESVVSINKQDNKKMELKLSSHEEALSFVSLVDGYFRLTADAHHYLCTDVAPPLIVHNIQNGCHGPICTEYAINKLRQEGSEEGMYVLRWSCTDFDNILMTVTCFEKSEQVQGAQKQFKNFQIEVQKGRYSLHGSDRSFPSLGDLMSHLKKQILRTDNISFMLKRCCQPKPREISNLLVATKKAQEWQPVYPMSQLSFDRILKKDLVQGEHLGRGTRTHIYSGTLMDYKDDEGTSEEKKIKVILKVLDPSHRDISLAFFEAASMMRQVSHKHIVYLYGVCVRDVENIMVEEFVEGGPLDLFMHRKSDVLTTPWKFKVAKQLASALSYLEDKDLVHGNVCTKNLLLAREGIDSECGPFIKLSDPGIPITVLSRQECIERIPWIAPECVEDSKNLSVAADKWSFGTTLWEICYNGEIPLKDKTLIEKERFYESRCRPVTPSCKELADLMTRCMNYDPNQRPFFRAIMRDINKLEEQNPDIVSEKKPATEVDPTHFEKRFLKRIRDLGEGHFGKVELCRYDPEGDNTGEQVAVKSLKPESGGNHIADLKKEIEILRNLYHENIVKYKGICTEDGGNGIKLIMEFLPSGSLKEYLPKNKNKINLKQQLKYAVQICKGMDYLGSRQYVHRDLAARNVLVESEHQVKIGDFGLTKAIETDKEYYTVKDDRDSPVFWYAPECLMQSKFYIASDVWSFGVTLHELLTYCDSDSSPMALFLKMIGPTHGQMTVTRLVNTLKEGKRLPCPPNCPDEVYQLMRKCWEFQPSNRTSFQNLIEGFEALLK
LYN, sequence (P07948 whole entry): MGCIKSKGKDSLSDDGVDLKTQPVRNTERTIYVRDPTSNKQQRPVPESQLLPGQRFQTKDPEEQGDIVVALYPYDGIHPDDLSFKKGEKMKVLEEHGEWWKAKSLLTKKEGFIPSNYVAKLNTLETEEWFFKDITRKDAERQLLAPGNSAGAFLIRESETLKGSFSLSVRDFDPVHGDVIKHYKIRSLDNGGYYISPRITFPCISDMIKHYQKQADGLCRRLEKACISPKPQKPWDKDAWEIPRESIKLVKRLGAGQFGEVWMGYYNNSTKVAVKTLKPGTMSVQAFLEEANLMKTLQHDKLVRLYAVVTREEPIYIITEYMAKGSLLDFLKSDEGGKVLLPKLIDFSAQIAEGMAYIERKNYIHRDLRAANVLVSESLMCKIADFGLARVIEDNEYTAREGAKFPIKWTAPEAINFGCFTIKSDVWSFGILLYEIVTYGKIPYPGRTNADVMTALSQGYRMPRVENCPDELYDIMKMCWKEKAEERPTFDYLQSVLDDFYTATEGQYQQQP
MAP2K2, sequence (P36507 whole entry): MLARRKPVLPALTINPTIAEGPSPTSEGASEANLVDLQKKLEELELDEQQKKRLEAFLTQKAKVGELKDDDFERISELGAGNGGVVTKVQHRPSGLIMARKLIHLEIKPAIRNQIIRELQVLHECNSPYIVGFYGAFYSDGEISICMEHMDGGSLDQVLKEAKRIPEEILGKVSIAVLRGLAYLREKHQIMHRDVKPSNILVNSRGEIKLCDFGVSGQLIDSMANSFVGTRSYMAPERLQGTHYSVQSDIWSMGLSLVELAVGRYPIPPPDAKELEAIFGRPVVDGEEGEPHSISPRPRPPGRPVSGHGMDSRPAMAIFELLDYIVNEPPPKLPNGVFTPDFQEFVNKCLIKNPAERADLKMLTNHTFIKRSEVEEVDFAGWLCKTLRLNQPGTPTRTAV
CSNK1D, sequence (P48730 whole entry): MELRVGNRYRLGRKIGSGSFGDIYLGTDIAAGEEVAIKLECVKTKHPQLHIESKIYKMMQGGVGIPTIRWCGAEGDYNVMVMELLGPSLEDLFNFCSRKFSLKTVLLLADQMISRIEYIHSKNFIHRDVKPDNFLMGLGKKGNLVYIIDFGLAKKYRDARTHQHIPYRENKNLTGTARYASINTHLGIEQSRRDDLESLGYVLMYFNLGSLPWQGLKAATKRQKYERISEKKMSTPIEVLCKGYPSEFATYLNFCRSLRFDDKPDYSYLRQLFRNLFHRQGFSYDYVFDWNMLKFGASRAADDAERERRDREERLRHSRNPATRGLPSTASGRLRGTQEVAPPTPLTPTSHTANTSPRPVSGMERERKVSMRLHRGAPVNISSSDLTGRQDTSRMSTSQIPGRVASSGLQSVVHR
MARK2, sequence (Q7KZI7 whole entry): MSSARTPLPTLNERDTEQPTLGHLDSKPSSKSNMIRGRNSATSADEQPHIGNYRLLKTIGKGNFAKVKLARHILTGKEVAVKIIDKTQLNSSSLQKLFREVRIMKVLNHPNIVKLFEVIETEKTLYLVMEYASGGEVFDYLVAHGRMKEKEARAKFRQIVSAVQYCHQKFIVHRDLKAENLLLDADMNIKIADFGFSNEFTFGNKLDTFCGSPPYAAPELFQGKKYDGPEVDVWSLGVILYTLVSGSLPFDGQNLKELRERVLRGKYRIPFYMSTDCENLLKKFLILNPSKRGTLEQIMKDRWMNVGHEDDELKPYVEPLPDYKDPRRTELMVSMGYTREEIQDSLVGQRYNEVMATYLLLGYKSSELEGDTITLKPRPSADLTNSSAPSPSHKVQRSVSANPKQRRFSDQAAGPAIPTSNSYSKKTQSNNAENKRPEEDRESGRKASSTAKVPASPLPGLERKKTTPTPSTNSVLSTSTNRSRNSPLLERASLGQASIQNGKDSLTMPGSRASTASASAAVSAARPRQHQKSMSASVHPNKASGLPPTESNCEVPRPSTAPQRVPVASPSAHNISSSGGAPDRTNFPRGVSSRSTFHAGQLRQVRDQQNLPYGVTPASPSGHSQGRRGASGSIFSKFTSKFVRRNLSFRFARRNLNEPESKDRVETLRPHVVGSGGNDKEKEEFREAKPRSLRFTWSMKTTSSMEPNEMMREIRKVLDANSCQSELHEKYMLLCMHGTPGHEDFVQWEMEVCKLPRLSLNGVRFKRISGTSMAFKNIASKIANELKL
CSNK1E, sequence (P49674 whole entry): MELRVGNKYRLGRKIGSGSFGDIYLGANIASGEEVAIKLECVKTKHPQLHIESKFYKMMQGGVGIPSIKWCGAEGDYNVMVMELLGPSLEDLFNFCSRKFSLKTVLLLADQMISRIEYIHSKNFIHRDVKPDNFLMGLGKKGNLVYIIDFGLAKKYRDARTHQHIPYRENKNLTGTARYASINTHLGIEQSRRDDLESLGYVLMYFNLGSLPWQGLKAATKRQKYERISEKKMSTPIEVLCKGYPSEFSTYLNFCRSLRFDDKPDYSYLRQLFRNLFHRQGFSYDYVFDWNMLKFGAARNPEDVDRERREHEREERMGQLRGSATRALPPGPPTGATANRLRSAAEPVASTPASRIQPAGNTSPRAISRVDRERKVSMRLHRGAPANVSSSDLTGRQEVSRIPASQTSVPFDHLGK

| SMILES | Kd [1] [µM] | Kd [2] | Kd [3] | Kd [4] [µM] | Kd [5] | Kd [6] | Kd [7] | Kd [8] | Kd [9] | Kd [10] |
| --- | --- | --- | --- | --- | --- | --- | --- | --- | --- | --- |
| CN1CCN(c2ccc(Nc3ncc(C#N)c(Nc4ccccc4C(N)=O)n3)cc2)CC1.Cl [TCMDC-134116] | 0.507 | 1.15 µM | 1.1 µM and 2.81 µM | 0.0387 | 0.0131 µM and 0.0195 µM | 0.134 µM and 0.167 µM | 0.727 µM and 0.858 µM | 0.121 µM and 0.115 µM | 0.269 µM and 0.118 µM | 1.13 µM and 0.705 µM |
| Cl.NCC1(c2nc(-c3ccc(Cl)c(O)c3)c(-c3ccncc3)[nH]2)CCCCC1 [TCMDC-141154] | – | 0.044 µM and 0.0504 µM | 0.226 µM | – | – | 0.621 µM | 7.88 µM | – | – | – |
| CN(C)CC(O)COc1ccc(Nc2ncc([N+](=O)[O-])c(Nc3ccccc3O)n2)cc1.O=C(O)C(F)(F)F (centres unmarked) [TCMDC-141399] | 1.64 | – | – | 0.47 | 0.272 µM and 0.346 µM | – | – | 3.51 µM | 3.06 µM and 1.98 µM | 0.684 µM and 0.987 µM |
